In US20230149507A1, “TREATMENT OF ALT CANCERS” (INSTITUTO DE MEDICINA MOLECULAR JOÃO LOBO ANTUNES, priority 2019, published 2023):

Columns and labels:
U-2 OS cells [1] = assay: TRF analysis of cells overexpressing FANCM variants; format: cell-based, human; settings: overexpression
Source text: (§1) (a) Western immunoblotting of stable wild-type FANCM (FANCM+) or FANCM mutant overexpression in U-2 OS cells. […] (b) TRF analysis of U-2 OS cells overexpressing wild-type (FANCM+) or FANCM mutants. Gels were hybridized under native and denatured conditions with radiolabelled telomeric probes to detect the C-strand and G-strand. (c) Tukey boxplots of APB frequency (top panel) and mean APB telomere intensity (bottom panel) in U-2 OS cells overexpressing wild-type (FANCM+) or FANCM mutants. Out of 3 experiments, n=150 cells scored per variant, *p<0.05, **p<0.005, Mann-Whitney test.
(§2) Empty vector and wild-type FANCM (pCMV6-Myc-DDK) constructs were obtained from Origene Technologies. Wild type FANCM (SEQ ID NO: 2) and FANCM mutants (SEQ ID NOs: 19 to 28) were cloned into the pLenti-C-Myc-DDK-IRES-Neo backbone (Origene Technologies) by restriction enzyme subcloning of gene blocks synthesized by Integrated DNA Technologies (IDT). Lentivirus was produced by the Vector and Genome Engineering Facility (Children's Medical Research Institute). For stable overexpression, cells were transduced with lentivirus, allowed to recover for 24 h, and subject to G418 selection. Cells were maintained in G418 to ensure sustained overexpression.
Genomic DNA was digested with 4 U/μg of HinfI and RsaI overnight at 37° C. […]

U-2 OS cells [2] = assay: APB frequency and APB telomere intensity in cells overexpressing FANCM variants; format: cell-based, human; settings: overexpression
Source text: as §1
FIG. 23. Defects in ALT phenotype suppression are exacerbated by overexpression of a double-mutant (DM) FANCM, in which both the MM2 domain (FF>AA) and the translocase domain (K117R) of FANCM are mutated. (a) Representative dot blots and quantitation of C-circle assays in U-2 OS cells stably overexpressing wild-type (WT) or FANCM domain mutants (K117R, FF>AA; DM). C-circles were normalized to the mean of empty vector control (EV). Error bars represent mean±SEM from n=3 experiments, *p<0.05, **p<0.005, Student's t-test. (b) Quantitation of APB frequency in U-2 OS cells overexpressing wild-type (WT) or FANCM mutants. Scatterplot bars represent the mean±SEM. Out of three experiments, n=150 cells were scored for each mutant, **p<0.005, Mann-Whitney test. (c) Quantitation of metaphase-TIFs in U-2 OS cells stably overexpressing wild-type (WT) or FANCM mutants. Scatterplot bars represent the mean±SEM. Out of three experiments, n=120 metaphases scored for each mutant, *p<0.05, **p<0.005, Mann-Whitney test. All statistical comparisons are relative to EV control.
as §2
Indirect IF and telomere FISH were performed on both interphase nuclei and metaphase spreads. For interphase IF experiments, cells were grown on coverslips or LabTek chamber slides (Thermo Scientific). Slides were prepared as described in Sobinoff et al., 2017. Cells on coverslips were washed twice with PBS, permeabilized with KCM buffer (120 mM KCl, 20 mM NaCl, 10 mM Tris pH 7.5, 0.1% Triton), washed again with PBST and PBS, then fixed with ice-cold 4% formaldehyde PBS solution at room temperature for 10 min. Coverslips were blocked with antibody-dilution buffer (20 mM Tris-HCl, pH 7.5, 2% (w/v) BSA, 0.2% (v/v) fish gelatin, 150 mM NaCl, 0.1% (v/v) Triton X-100 and 0.1% (w/v) sodium azide) and 0.1 mg/ml RNaseA for 30 min at 37° C. Cells were incubated with primary antibodies (Supplementary Table 1) for 1 h at 37° C. or 2 h at room temperature, then incubated with 1:1,000 dilution of appropriate Alexa Fluor conjugated secondary antibodies (Thermo Scientific). Coverslips were rinsed with PBS then fixed with 4% (v/v) formaldehyde at room temperature prior to telomere FISH. Coverslips were subjected to a graded ethanol series (75% for 2 min, 85% for 2 min, and 100% for 2 min) and allowed to air-dry. […]

| Substance | low molecular weight ss C-rich telomeric DNA (U-2 OS cells [1]) | intensity of telomeric signal within APBs (U-2 OS cells [2]) | number of APBs (U-2 OS cells [2]) |
| --- | --- | --- | --- |
| FF>AA: FANCM mutant (SEQ ID NO: 25), double substitution F1232A/F1236A within the MM2 domain | smear of low molecular weight ss C-rich telomeric DNA was observed | significant increase | significant increase |
| K117R: FANCM mutant (SEQ ID NO: 20) substituted at K117R, DEAH domain disrupted | smear of low molecular weight ss C-rich telomeric DNA was observed | significant increase | significant increase |
